Data on 35 compounds can be found in patent US20240336608A1, “IL4I1 INHIBITORS AND METHODS OF USE” (Merck Sharp & Dohme LLC, priority 2023, published 2024).

pEC50: −log10 of the molar value.

A word on the pEC50: it is the negative decadic logarithm of the EC50, by convention in mol/L.

In this experiment the target is T1, recombinant IL4I1 (Homo sapiens, UniProt Q96RQ9).
T1 construct: purchased R&D Systems 5684-AO-020
T1 sequence (Q96RQ9 22-567): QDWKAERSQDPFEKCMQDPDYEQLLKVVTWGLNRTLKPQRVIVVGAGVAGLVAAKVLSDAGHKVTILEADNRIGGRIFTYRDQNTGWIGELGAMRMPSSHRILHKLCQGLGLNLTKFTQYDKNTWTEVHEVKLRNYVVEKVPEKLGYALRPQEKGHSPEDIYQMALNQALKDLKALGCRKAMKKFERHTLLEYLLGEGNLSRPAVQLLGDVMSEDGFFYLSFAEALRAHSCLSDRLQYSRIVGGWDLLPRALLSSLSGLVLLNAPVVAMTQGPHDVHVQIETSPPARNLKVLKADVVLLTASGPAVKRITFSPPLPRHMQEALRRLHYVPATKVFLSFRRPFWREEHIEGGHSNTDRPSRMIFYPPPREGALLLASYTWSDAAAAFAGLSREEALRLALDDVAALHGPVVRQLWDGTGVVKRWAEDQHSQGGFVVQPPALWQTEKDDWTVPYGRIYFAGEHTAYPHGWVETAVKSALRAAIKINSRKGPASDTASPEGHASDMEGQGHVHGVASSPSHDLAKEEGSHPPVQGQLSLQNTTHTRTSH
Briefly: IL4I1 Enzymatic Assay (Amplex Red/HRP coupled detection of H2O2, fluorescence). It is filed as biochemical. As to conditions: 1 nM recombinant IL4I1; four-hour pre-incubation with compound; 1 mM each Phe, Tyr, Trp; ten-point titration. The essentials:
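H2O2 output was coupled to resorufin fluorescence (ex 544/em 590) via 0.05 mM Amplex Red and 1 U/mL HRP. Substrate: Phe, Tyr, Trp at 1 mM each; enzyme 1 nM, 4 h compound pre-incubation, 120 min reaction, pH 7.0 Hepes. EC50 by nonlinear four-parameter regression, 1:3 ten-point titration.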
Turning to `CCc1[nH]nc(C(=O)NCc2nnc(-c3ccccc3)s2)c1C` [Example 47, 5-ethyl-4-methyl-N-((5-phenyl-1,3,4-thiadiazol-2-yl)methyl)-1H-pyrazole-3-carboxamide], the pEC50 was 6.81.

Consider `O=C(NCc1nnc(-c2ccccc2)s1)c1cc2n(n1)CCC2` [Example 48, N-[(5-phenyl-1,3,4-thiadiazol-2-yl)methyl]-5,6-dihydro-4H-pyrrolo[1,2-b]pyrazole-2-carboxamide], for which the pEC50 is 6.63.

As for `CC(C)c1cc(C(=O)NCc2nnc(-c3ccccc3)s2)on1` [Example 49, 3-isopropyl-N-[(5-phenyl-1,3,4-thiadiazol-2-yl)methyl]isoxazole-5-carboxamide], the pEC50 is 7.66.

With `Cc1cc(C(=O)NCc2nnc(-c3ccccc3)s2)c(C)n1C` [Example 50, 1,2,5-trimethyl-N-[(5-phenyl-1,3,4-thiadiazol-2-yl)methyl]pyrrole-3-carboxamide], the pEC50 is 6.27.

Take `Cn1ccc(C(=O)NCc2nnc(-c3ccccc3)s2)c1` [Example 51, 1-methyl-N-[(5-phenyl-1,3,4-thiadiazol-2-yl)methyl]pyrrole-3-carboxamide]: the pEC50 was 6.93.

`CCn1ccc(C(=O)NCc2nnc(-c3ccccc3)s2)n1` [Example 52, 1-ethyl-N-[(5-phenyl-1,3,4-thiadiazol-2-yl)methyl]pyrazole-3-carboxamide]: the negative logarithm of the EC50 (pEC50) is 6.89.

In the case of `Cc1c(C(=O)NCc2nnc(-c3ccccc3)s2)oc2ccccc12` [Example 53, 3-methyl-N-[(5-phenyl-1,3,4-thiadiazol-2-yl)methyl]benzofuran-2-carboxamide], the pEC50 was 6.45.

For the compound `Cn1c(C(=O)NCc2nnc(-c3ccccc3)s2)cc2ccccc21` [Example 54, 1-methyl-N-((5-phenyl-1,3,4-thiadiazol-2-yl)methyl)-1H-indole-2-carboxamide], the pEC50 is 6.49.

For the compound `Cc1nonc1C(=O)NCc1nnc(-c2ccccc2)s1` [Example 55, 4-methyl-N-[(5-phenyl-1,3,4-thiadiazol-2-yl)methyl]-1,2,5-oxadiazole-3-carboxamide], the pEC50 is 6.56.

As to `O=C(NCc1nnc(-c2ccccc2)s1)c1cc2c(o1)CCNC2=O` [Example 56, 4-oxo-N-[(5-phenyl-1,3,4-thiadiazol-2-yl)methyl]-6,7-dihydro-5H-furo[3,2-c]pyridine-2-carboxamide], the negative logarithm of the EC50 (pEC50) was 6.63.

Take `Cc1cc(C)c(C(=O)NCc2nnc(-c3ccccc3)s2)o1` [Example 57, 3,5-dimethyl-N-[(5-phenyl-1,3,4-thiadiazol-2-yl)methyl]furan-2-carboxamide]: the pEC50 is 6.01.

On to `COc1cc(C(=O)NCc2nnc(-c3ccccc3)s2)on1` [Example 58, 3-methoxy-N-[(5-phenyl-1,3,4-thiadiazol-2-yl)methyl]isoxazole-5-carboxamide], for which the pEC50 is 7.04.

As for `O=C(NCc1nnc(-c2ccccc2)s1)c1cn(CC(F)(F)F)nn1` [Example 60, N-((5-phenyl-1,3,4-thiadiazol-2-yl)methyl)-1-(2,2,2-trifluoroethyl)-1H-1,2,3-triazole-4-carboxamide], the pEC50 is 8.40.

In the case of `O=C(NCc1nnc(-c2ccccc2)s1)c1cn(C2CC(F)(F)C2)nn1` [Example 61, 1-(3,3-difluorocyclobutyl)-N-((5-phenyl-1,3,4-thiadiazol-2-yl)methyl)-1H-1,2,3-triazole-4-carboxamide], the pEC50 was 7.17.

Consider `O=C(NCc1nnc(-c2ccccc2)s1)c1cn(CCC(F)(F)F)nn1` [Example 62, N-((5-phenyl-1,3,4-thiadiazol-2-yl)methyl)-1-(3,3,3-trifluoropropyl)-1H-1,2,3-triazole-4-carboxamide], for which the pEC50 was 8.15.

Regarding `COCC[C@@H](C)n1cc(C(=O)NCc2nnc(-c3ccccc3)s2)nn1` [Example 65, (R)-1-(4-methoxybutan-2-yl)-N-((5-phenyl-1,3,4-thiadiazol-2-yl)methyl)-1H-1,2,3-triazole-4-carboxamide], the pEC50 is 7.17.

For `COCC[C@H](C)n1cc(C(=O)NCc2nnc(-c3ccccc3)s2)nn1` [Example 66, (S)-1-(4-methoxybutan-2-yl)-N-((5-phenyl-1,3,4-thiadiazol-2-yl)methyl)-1H-1,2,3-triazole-4-carboxamide], the pEC50 was 6.66.

With `O=C(NCc1nnc(-c2ccccc2)s1)c1cn(C2COC2)nn1` [Example 67, 1-(oxetan-3-yl)-N-((5-phenyl-1,3,4-thiadiazol-2-yl)methyl)-1H-1,2,3-triazole-4-carboxamide], the pEC50 is 7.85.

As for `O=C(NCc1nnc(-c2ccccc2)s1)c1cn(C2CCC2)nn1` [Example 68, 1-cyclobutyl-N-((5-phenyl-1,3,4-thiadiazol-2-yl)methyl)-1H-1,2,3-triazole-4-carboxamide], the negative-log EC50 (pEC50) was 7.77.

`CC(C)(C)OC(=O)N1CC(n2cc(C(=O)NCc3nnc(-c4ccccc4)s3)nn2)C1` [Example 69, tert-butyl 3-(4-(((5-phenyl-1,3,4-thiadiazol-2-yl)methyl)carbamoyl)-1H-1,2,3-triazol-1-yl)azetidine-1-carboxylate]: the negative logarithm of the EC50 (pEC50) is 8.05.

Consider `NC(=O)Cn1cc(C(=O)NCc2nnc(-c3ccccc3)s2)nn1` [Example 70, 1-(2-amino-2-oxoethyl)-N-((5-phenyl-1,3,4-thiadiazol-2-yl)methyl)-1H-1,2,3-triazole-4-carboxamide], for which the pEC50 was 8.30.

Regarding `N#CCCn1cc(C(=O)NCc2nnc(-c3ccccc3)s2)nn1` [Example 71, 1-(2-cyanoethyl)-N-((5-phenyl-1,3,4-thiadiazol-2-yl)methyl)-1H-1,2,3-triazole-4-carboxamide], the pEC50 is 7.96.

For the compound `CCn1cc(C(=O)NCc2nnc(-c3ccccc3)s2)nn1` [Example 72, 1-ethyl-N-((5-phenyl-1,3,4-thiadiazol-2-yl)methyl)-1H-1,2,3-triazole-4-carboxamide], the pEC50 is 8.52.

In the case of `CC(C#N)n1cc(C(=O)NCc2nnc(-c3ccccc3)s2)nn1` (centres unmarked) [Example 73, 1-(1-cyanoethyl)-N-((5-phenyl-1,3,4-thiadiazol-2-yl)methyl)-1H-1,2,3-triazole-4-carboxamide], the pEC50 is 8.05.

On to `N#CCn1cc(C(=O)NCc2nnc(-c3ccccc3)s2)nn1` [Example 74, 1-(cyanomethyl)-N-((5-phenyl-1,3,4-thiadiazol-2-yl)methyl)-1H-1,2,3-triazole-4-carboxamide], for which the negative logarithm of the EC50 (pEC50) is 7.85.

As to `C[C@@H](CO)Cn1cc(C(=O)NCc2nnc(-c3ccccc3)s2)nn1` [Example 75, (R)-1-(3-hydroxy-2-methylpropyl)-N-((5-phenyl-1,3,4-thiadiazol-2-yl)methyl)-1H-1,2,3-triazole-4-carboxamide], the negative-log EC50 (pEC50) is 7.77.

For the compound `C[C@H](CO)Cn1cc(C(=O)NCc2nnc(-c3ccccc3)s2)nn1` [Example 76, (S)-1-(3-hydroxy-2-methylpropyl)-N-((5-phenyl-1,3,4-thiadiazol-2-yl)methyl)-1H-1,2,3-triazole-4-carboxamide], the negative logarithm of the EC50 (pEC50) was 8.40.

As to `O=C(NCc1nnc(-c2ccccc2)s1)c1cn(CC2CCC2)nn1` [Example 77, 1-(cyclobutylmethyl)-N-((5-phenyl-1,3,4-thiadiazol-2-yl)methyl)-1H-1,2,3-triazole-4-carboxamide], the pEC50 was 7.92.

Consider `O=C(NCc1nnc(-c2ccccc2)s1)c1cn(CC2CCCC2)nn1` [Example 78, 1-(cyclopentylmethyl)-N-((5-phenyl-1,3,4-thiadiazol-2-yl)methyl)-1H-1,2,3-triazole-4-carboxamide], for which the pEC50 was 7.47.

For the compound `O=C(NCc1nnc(-c2ccccc2)s1)c1cn(CC2CCCO2)nn1` (centres unmarked) [Example 79, N-((5-phenyl-1,3,4-thiadiazol-2-yl)methyl)-1-((tetrahydrofuran-2-yl)methyl)-1H-1,2,3-triazole-4-carboxamide], the negative-log EC50 (pEC50) is 6.96.

As to `O=C(NCc1nnc(-c2ccccc2)s1)c1cn(CCF)nn1` [Example 80, 1-(2-fluoroethyl)-N-((5-phenyl-1,3,4-thiadiazol-2-yl)methyl)-1H-1,2,3-triazole-4-carboxamide], the pEC50 is 8.70.

Turning to `CNC(=O)Cn1cc(C(=O)NCc2nnc(-c3ccccc3)s2)nn1` [Example 81, 1-(2-(methylamino)-2-oxoethyl)-N-((5-phenyl-1,3,4-thiadiazol-2-yl)methyl)-1H-1,2,3-triazole-4-carboxamide], the pEC50 is 8.22.

Consider `CCC(CC)Cn1cc(C(=O)NCc2nnc(-c3ccccc3)s2)nn1` [Example 82, 1-(2-ethylbutyl)-N-((5-phenyl-1,3,4-thiadiazol-2-yl)methyl)-1H-1,2,3-triazole-4-carboxamide], for which the pEC50 is 6.55.

On to `O=C(NCc1nnc(-c2ccccc2)s1)c1cn(CC2CCCCO2)nn1` (centres unmarked) [Example 83, N-((5-phenyl-1,3,4-thiadiazol-2-yl)methyl)-1-((tetrahydro-2H-pyran-2-yl)methyl)-1H-1,2,3-triazole-4-carboxamide], for which the pEC50 is 6.44.

On to `N#CCCCn1cc(C(=O)NCc2nnc(-c3ccccc3)s2)nn1` [Example 84, 1-(3-cyanopropyl)-N-((5-phenyl-1,3,4-thiadiazol-2-yl)methyl)-1H-1,2,3-triazole-4-carboxamide], for which the pEC50 is 7.28.
